Counter-ions that a name gives are not always drawn.

Among the data in US20240376114A1, “NUCLEAR TRANSPORT MODULATORS AND USES THEREOF” (Karyopharm Therapeutics Inc., priority 2011, published 2024) are EC50 and IC50 values, retold here.

Data set [1] is described as follows: CellTiter 96 AQueous One Solution (MTS) cell proliferation assay. Type of data set: cell-based. Conditions: human, MM.1S multiple myeloma cells; MM.1S cells, 72 h treatment; read-out: Cytotoxicity [EC50]. From the text: The CellTiter 96® AQueous One Solution cell proliferation assay (Promega) was used on MM.1S multiple myeloma cell line to study the cytotoxic and cytostatic properties of the compounds. The assay is based on the cleavage of the tetrazolium salt, MTS, in the presence of an electron-coupling reagent PES (phenazine ethosulfate). The MTS tetrazolium compound is bioreduced by cells into a colored formazan product that is soluble in tissue culture medium. This conversion is presumably accomplished by NADPH or NADH produced by dehydrogenase enzymes in metabolically active cells. Assays are performed by adding a small amount of the CellTiter 96® AQueous One solution reagent directly to culture wells, incubating for 1-4 hours and then recording the absorbance at 490 nm with a 96-well plate reader.
The cells were seeded at 5×10^3 to 1.5×10^4 cells (depending on cell type) in each well of a 96-well plate in 100 μL of fresh culture medium and adherent cells were allowed to attach overnight. The stock solutions of the compounds were diluted in cell culture medium to obtain eight concentrations of each drug, ranging from 1 nM to 30 μM and DMSO at less than 1% v/v was used as a negative control. The resulting drug solutions were transferred onto the cells. After 72 h of treatment, 20 μl of CellTiter 96® AQueous reagent was added into each well of the 96-well assay plates and the plate was incubated at 37° C. for 1-4 hours in a humidified, 5% CO2 atmosphere. Then the absorbance of each well was recorded at 490 nm using a 96-well plate reader. In most cases, the assay was performed in triplicate and the results were presented as half maximal inhibitory concentration (IC50). Optical density versus compound concentration was plotted and analyzed using non-linear regression equations (IDBS XLfit) and the IC50 for each compound was calculated.

The target in another data set is CRM1 (Homo sapiens (Human), UniProt O14980). As to the kind of experiment: RevGFP assay: inhibition of CRM1-mediated nuclear export. Type of data set: cell-based. Conditions: U2OS-RevGFP cells, about 1 hr incubation; read-out: Rev Export [IC50]. The protocol:
The ability of exemplary compounds of the invention to inhibit CRM1-mediated nuclear export was assessed in a RevGFP assay. Rev is a protein from human immunodeficiency virus type 1 (HIV-1) and contains a nuclear export signal (NES) in its C-terminal domain and a nuclear localization signal (NLS) in its N-terminal domain. Nuclear export of Rev protein is dependent on the classical NES/CRM1 pathway (Neville et al. 1997).
In this assay, U2OS-RevGFP cells were seeded onto clear-bottomed, black, 384-well plates the day before the experiment. Compounds were serially diluted 1:2 in DMEM, starting from 40 μM in a separate, 384-well plate, and then transferred onto the cells. The cells were incubated with compound for about 1 hr before fixation with 3.7% formaldehyde and nuclei staining with Hoechst 33258. The amount of GFP in cell nuclei was measured and the IC50 of each compound was determined (Kau et al. 2003). […]

CRM1, sequence (O14980 whole entry, the tested form may be a part): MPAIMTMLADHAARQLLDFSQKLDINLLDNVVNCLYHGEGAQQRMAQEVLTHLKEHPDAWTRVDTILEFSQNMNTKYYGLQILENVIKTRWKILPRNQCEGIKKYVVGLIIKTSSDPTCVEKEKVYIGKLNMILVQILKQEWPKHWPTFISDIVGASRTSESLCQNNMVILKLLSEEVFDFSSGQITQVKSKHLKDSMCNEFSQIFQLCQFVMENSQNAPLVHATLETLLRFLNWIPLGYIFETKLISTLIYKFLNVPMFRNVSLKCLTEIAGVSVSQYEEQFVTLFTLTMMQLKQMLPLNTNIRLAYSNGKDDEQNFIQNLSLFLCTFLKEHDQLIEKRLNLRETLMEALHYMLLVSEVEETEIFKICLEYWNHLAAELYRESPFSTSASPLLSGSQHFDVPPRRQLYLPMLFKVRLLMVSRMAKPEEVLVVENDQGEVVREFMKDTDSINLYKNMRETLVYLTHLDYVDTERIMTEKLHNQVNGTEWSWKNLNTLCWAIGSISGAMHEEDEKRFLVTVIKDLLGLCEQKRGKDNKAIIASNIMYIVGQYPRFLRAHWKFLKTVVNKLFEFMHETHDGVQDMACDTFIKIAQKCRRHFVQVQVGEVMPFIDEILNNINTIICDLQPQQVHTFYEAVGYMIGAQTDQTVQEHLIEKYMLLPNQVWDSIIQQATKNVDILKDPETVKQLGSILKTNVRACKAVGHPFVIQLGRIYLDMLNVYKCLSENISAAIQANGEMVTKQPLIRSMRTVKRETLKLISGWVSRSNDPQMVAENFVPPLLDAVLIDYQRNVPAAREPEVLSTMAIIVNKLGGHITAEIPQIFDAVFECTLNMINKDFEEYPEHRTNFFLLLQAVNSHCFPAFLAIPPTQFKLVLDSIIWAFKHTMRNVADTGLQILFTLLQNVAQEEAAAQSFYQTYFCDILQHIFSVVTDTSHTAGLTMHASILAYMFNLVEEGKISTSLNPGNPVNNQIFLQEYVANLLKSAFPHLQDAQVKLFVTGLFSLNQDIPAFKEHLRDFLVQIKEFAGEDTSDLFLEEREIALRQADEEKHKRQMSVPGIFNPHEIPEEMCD

With `O=C(/C=C/n1cnc(-c2cc(C(F)(F)F)cc(C(F)(F)F)c2)n1)N1CC(F)(F)C1` [Compound 4, (E)-3-(3-(3,5-bis(trifluoromethyl)phenyl)-1H-1,2,4-triazol-1-yl)-1-(3,3-difluoroazetidin-1-yl)prop-2-en-1-one], in data set [1], the EC50 (as a rule, the concentration giving half of the maximal effect) at 72 h is less than 1000 nM. In addition, the IC50 (in general, the point on the concentration scale where inhibition reaches its midpoint) on CRM1 was less than 1000 nM.
For the compound `O=C(/C=C\n1cnc(-c2cc(C(F)(F)F)cc(C(F)(F)F)c2)n1)NC1C2CNCC21` (stereo not shown) [Compound 56, (Z)—N-(3-azabicyclo[3.1.0]hexan-6-yl)-3-(3-(3,5-bis(trifluoromethyl)phenyl)-1H-1,2,4-triazol-1-yl)acrylamide hydrochloride], the EC50 at 72 h in data set [1] is less than 1000 nM. Also, the half-maximal inhibitory concentration (IC50) at CRM1 is less than 1000 nM.
